Reference: ChEMBL document CHEMBL1129416, “Brain-targeted delivery of a leucine-enkephalin analogue by retrometabolic design” (J Med Chem, 1996)

Test: The compound was evaluated for opioid receptors binding affinity competition with [3H]diprenorphine.

In the case of `CC(C)C[C@@H](NC(=O)[C@H](Cc1ccccc1)NC(=O)CNC(=O)[C@@H](C)NC(=O)[C@@H](N)Cc1ccc(O)cc1)C(=O)O` [DADLE], the IC50 is reported as 36 nM.
